According to patent US10227331B2 (priority 2015, dated 2019):
Like-named read-outs stand apart in the source and are kept apart here.

Assays:
[1] = test system: Klebsiella pneumoniae expressing VIM-1 (IHMA599644); type: cell-based; conditions: with imipenem 1 μg/ml, 95% inhibition of bacterial growth; for Klebsiella pneumoniae MITC95: VIM-1 (IHMA599644)
In short: (§1)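 Clinical strains grown overnight on blood agar, then diluted 1:100 in 1.1× CAMHB and exposed to test compound with imipenem at 1 μg/ml. Incubation was 22–24 h at 35° C; growth was read by absorbance to find the compound concentration restoring imipenem susceptibility.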

[2] = test system: Serratia marcescens expressing IMP-1 (CL5741); type: cell-based; conditions: with imipenem 1 μg/ml, 95% inhibition of bacterial growth; for Serratia marcescens MITC95: IMP-1 (CL5741)
In short: as §1

[3] = test system: Escherichia coli expressing NDM-1 (CLB30005, CLB30016); type: cell-based; conditions: with imipenem 1 μg/ml, 95% inhibition of bacterial growth; for Escherichia coli MITC95: NDM-1 (CLB30016)
In short: as §1

[4] = test system: P. aeruginosa expressing IMP-1, efflux+ (MB9798); type: cell-based, Pseudomonas aeruginosa; conditions: for P. aeruginosa expressing IMP-1, efflux+ (MB9798) MITC95: imipenem at 2 μg/mL, in the presence of a class A, C, D serine β-lactamase inhibitor closely related to relebactam; for Efflux ratio: ratio MITC95 PA_9798/MITC95 PA_9799
Text: (§2) The strain background is Pseudomonas aeruginosa PAO1.

IMP-1 = IMP-1 (Serratia marcescens, UniProt P52699); experiment: biochemical; type: biochemical
In short: (§3)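 Class B activity is measured in the presence of compound by fluorescence with CCF2-FA after a 2-hour incubation at 25° C. IC50 is taken from a 4-parameter fit of semi-logarithmic dose-response data.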

NDM-1 = NDM-1 (Klebsiella pneumoniae, UniProt C7C422); experiment: biochemical; type: biochemical; conditions: CCF2-FA substrate, 2 hours at 25° C; read-out: NDM-1 IC50
In short: as §3

VIM-1 = VIM-1 (Pseudomonas aeruginosa (strain ATCC 15692 / DSM 22644 / CIP 104116 / JCM 14847 / LMG 12228 / 1C / PRS 101 / PAO1), UniProt A0A0F7KYQ8); experiment: biochemical; conditions: CCF2-FA substrate, 2 hours at 25° C
In short: as §3

[5] = test system: P. aeruginosa expressing IMP-1, efflux− (MB9799); experiment: Efflux: concentration of MBL inhibitor which restores susceptibility to imipenem; type: cell-based, Pseudomonas aeruginosa; conditions: imipenem at 2 μg/mL, in the presence of a class A, C, D serine β-lactamase inhibitor closely related to relebactam
Text: as §2

[6] = CCF2-FA substrate, 2 hours at 25° C, read-out: IMP-1 IC50

Sequence of IMP-1 (P52699 whole entry, looked up, species assumed): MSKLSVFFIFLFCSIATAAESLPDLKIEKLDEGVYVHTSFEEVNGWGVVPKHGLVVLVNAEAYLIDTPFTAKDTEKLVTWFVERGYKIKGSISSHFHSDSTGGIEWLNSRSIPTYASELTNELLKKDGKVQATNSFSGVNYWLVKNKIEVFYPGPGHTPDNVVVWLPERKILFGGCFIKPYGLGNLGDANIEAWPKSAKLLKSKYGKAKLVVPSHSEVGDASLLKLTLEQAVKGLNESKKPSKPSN
Sequence of NDM-1 (C7C422 whole entry, looked up, species assumed): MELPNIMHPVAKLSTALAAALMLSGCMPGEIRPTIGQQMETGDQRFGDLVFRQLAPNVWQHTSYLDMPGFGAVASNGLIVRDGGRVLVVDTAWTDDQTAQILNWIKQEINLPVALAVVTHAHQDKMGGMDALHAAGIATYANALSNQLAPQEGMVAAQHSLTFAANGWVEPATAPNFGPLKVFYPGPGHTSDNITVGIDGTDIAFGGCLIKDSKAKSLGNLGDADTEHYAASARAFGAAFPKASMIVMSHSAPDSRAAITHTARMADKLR

| SMILES | Klebsiella pneumoniae expressing VIM-1 (IHMA599644) MITC95 [1] | Serratia marcescens expressing IMP-1 (CL5741) MITC95 [2] | Escherichia coli expressing NDM-1 (CLB30016) MITC95 [3] | P. aeruginosa expressing IMP-1, efflux+ (MB9798) MITC95 [4] | Efflux ratio [4] | IC50 (IMP-1; [6]) | IC50 (NDM-1) | IC50 (VIM-1) | P. aeruginosa expressing IMP-1, efflux− (MB9799) MITC95 [5] | Klebsiella pneumoniae MITC95 [1] | Serratia marcescens MITC95 [2] | Escherichia coli MITC95 [3] | IC50 (IMP-1) |
| --- | --- | --- | --- | --- | --- | --- | --- | --- | --- | --- | --- | --- | --- |
| Cn1c(N)nc2c(-c3ccc(S(=O)(=O)C4CNC4)c(S(N)(=O)=O)c3-c3nn[nH]n3)cccc21 [Example 22, 3-(2-amino-1-methyl-1H-benzo[d]imidazol-4-yl)-6-(azetidin-3-ylsulfonyl)-2-(2H-tetrazol-5-yl)benzenesulfonamide] | 1.563 µM | 0.7813 µM | 0.3906 µM | 1.563 µM | 2.00 | 0.432 nM | 0.164 nM | 0.213 nM | 0.7813 µM |  |  |  |  |
| NS(=O)(=O)c1c(S(=O)(=O)C2CNC2)ccc(-c2cccc3nccn23)c1-c1nnn[nH]1 [Example 66, 6-(Azetidin-3-ylsulfonyl)-3-(imidazo[1,2-a]pyridin-5-yl)-2-(1H-tetrazol-5-yl)benzenesulfonamide] | 12.5 µM | 6.25 µM | 3.125 µM | 50 µM | 8.00 | 9.67 nM | 0.591 nM | 0.569 nM | 6.25 µM |  |  |  |  |
| NS(=O)(=O)c1c(S(=O)(=O)C2CNC2)ccc(-c2cccc3[nH]c(=O)[nH]c23)c1-c1nnn[nH]1 [Example 299, 6-(azetidin-3-ylsulfonyl)-3-(2-oxo-2,3-dihydro-1H-benzo[d]imidazol-4-yl)-2-(1H-tetrazol-5-yl) benzenesulfonamide] |  |  |  | 3.125 µM | 1.00 | 1.45 nM | 0.188 nM | 0.302 nM | 3.125 µM | 6.25 µM | 3.125 µM | 3.125 µM |  |
| NS(=O)(=O)c1c(SC2CCNCC2)ccc(-c2ccc(C3CCNCC3)cc2)c1-c1nnn[nH]1 [Example 226, 4′-(piperidin-4-yl)-4-(piperidin-4-ylthio)-2-(1H-tetrazol-5-yl)-[1,1′-biphenyl]-3-sulfonamide] | 6.25 µM | 3.125 µM | 1.563 µM | 25 µM | 32.00 | 35.7 nM | 15.1 nM | 48.5 nM | 0.7813 µM |  |  |  |  |
| Cc1ccc(-c2ccc(S(=O)(=O)[C@@H]3CCNC3)c(S(N)(=O)=O)c2-c2nn[nH]n2)c2nc(N)sc12 [Example 187, 3-(2-amino-7-methylbenzo[d]thiazol-4-yl)-6-((R)-pyrrolidin-3-ylsulfonyl)-2-(2H-tetrazol-5-yl)benzenesulfonamide] | 1.563 µM | 0.7813 µM | 0.7813 µM | 1.563 µM | 2.00 | 0.0757 nM | 0.0691 nM | 0.159 nM | 0.7813 µM |  |  |  |  |
| COc1ccc(Cc2cc3c(-c4ccc(S(=O)(=O)C5CNC5)c(S(N)(=O)=O)c4-c4nnn[nH]4)cccc3n2C)cc1 [Example 230, 6-(azetidin-3-ylsulfonyl)-3-(2-(4-methoxybenzyl)-1-methyl-1H-indol-4-yl)-2-(1H-tetrazol-5-yl)benzenesulfonamide] | 25 µM | 6.25 µM | 6.25 µM | 100 µM | 32.00 | 0.436 nM | 0.11 nM | 0.356 nM | 3.125 µM |  |  |  |  |
| NS(=O)(=O)c1c(S(=O)(=O)C2CNC2)ccc(-c2ccc3ncccc3c2)c1-c1nnn[nH]1.O=C(O)C(F)(F)F [Example 115, 3-((4-(quinolin-6-yl)-2-sulfamoyl-3-(1H-tetrazol-5-yl)phenyl)sulfonyl)azetidin-1-ium 2,2,2-trifluoroacetate] | 3.125 µM | 3.125 µM | 3.125 µM | 12.5 µM | 8.00 | 0.793 nM | 0.236 nM | 0.276 nM | 1.563 µM |  |  |  |  |
| NS(=O)(=O)c1c(S(=O)(=O)[C@@H]2CCNC2)ccc(-c2cccc3cn[nH]c23)c1-c1nn[nH]n1 [Example 185, 3-(1H-indazol-7-yl)-6-((R)-pyrrolidin-3-ylsulfonyl)-2-(2H-tetrazol-5-yl)benzenesulfonamide] | 3.125 µM | 1.563 µM | 0.7813 µM | 1.563 µM | 2.00 | 0.466 nM | 0.657 nM | 0.55 nM | 0.7813 µM |  |  |  |  |
| NCCS(=O)(=O)c1ccc(-c2cccc3oc(N)nc23)c(-c2nn[nH]n2)c1S(N)(=O)=O [Example 76, 3-(2-aminobenzo[d]oxazol-4-yl)-6-(2-aminoethylsulfonyl)-2-(2H-tetrazol-5-yl)benzenesulfonamide] | 1.563 µM | 0.7813 µM | 0.7813 µM | 0.7813 µM | 1.00 |  | 0.148 nM | 0.24 nM | 0.7813 µM |  |  |  | 0.258 nM |
| CCCn1c(N)nc2c(-c3ccc(S(=O)(=O)C4CNC4)c(S(N)(=O)=O)c3-c3nn[nH]n3)cccc21 [Example 289, 3-(2-amino-1-propyl-1H-benzo[d]imidazol-4-yl)-6-(azetidin-3-ylsulfonyl)-2-(2H-tetrazol-5-yl)benzenesulfonamide] |  |  |  | 12.5 µM | 8.00 | 0.299 nM | 0.12 nM | 0.407 nM | 1.563 µM | 3.125 µM | 1.563 µM | 0.3906 µM |  |
| NC1CCC(c2ccc(S(=O)(=O)C3CCNCC3)c(S(N)(=O)=O)c2-c2nnn[nH]2)CC1 (stereo not drawn) [Example 206, 3-(4-aminocyclohexyl)-6-(piperidin-4-ylsulfonyl)-2-(1H-tetrazol-5-yl) benzenesulfonamide] | 3.125 µM | 3.125 µM | 6.25 µM | 3.125 µM | 2.00 | 23.5 nM | 20.3 nM | 0.857 nM | 1.563 µM |  |  |  |  |
